Test results from ChEMBL document CHEMBL3593244, “Design, synthesis and preliminary bioactivity evaluations of substituted quinoline hydroxamic acid derivatives as novel histone deacetylase (HDAC) inhibitors” (Bioorg Med Chem, 2015).
pIC50: −log10 of the molar value.

Assays:
[1] = target: Histone deacetylase (HDAC1 and HDAC2) (Homo sapiens, UniProt Q13547+Q92769); assay: Inhibition of HDAC1/2 in human HeLa cell nuclear extracts preincubated for 5 mins followed by substrate addition measured after 0.5 hrs by Color de Lys assay; assay type: cell-based
MDA-MB-231 = assay: Cytotoxicity against human MDA-MB-231 cells assessed as inhibition of cell proliferation after 48 hrs by MTT assay; assay type: functional, cell-based; conditions: MDA-MB-231, 48 h
PC-3 = assay: cells; assay type: functional, cell-based; conditions: Homo sapiens, PC-3, 48 h
Description: Cytotoxicity against human PC3 cells assessed as inhibition of cell proliferation after 48 hrs by MTT assay

K562 = assay: cells; assay type: functional, cell-based; conditions: Homo sapiens, K562, 48 h
Description: Cytotoxicity against human K562 cells assessed as inhibition of cell proliferation after 48 hrs by MTT assay

A549 = assay: cells; assay type: functional, cell-based; conditions: Homo sapiens, A549, 48 h
Description: Cytotoxicity against human A549 cells assessed as inhibition of cell proliferation after 48 hrs by MTT assay

SMILES	IC50 [1] [nM]	further results
O=C(CCCC(=O)NCc1cc(C(=O)NCc2ccccc2)c2ccccc2n1)NO	> 1000	–
O=C(CCCCC(=O)NCc1cc(C(=O)NCc2ccccc2)c2ccccc2n1)NO	> 1000	–
O=C(CCCCCC(=O)NCc1cc(C(=O)NCc2ccccc2)c2ccccc2n1)NO	399	–
O=C(CCCCCCC(=O)NCc1cc(C(=O)NCc2ccccc2)c2ccccc2n1)NO	780	–
O=C(CCCCCCCC(=O)NCc1cc(C(=O)NCc2ccccc2)c2ccccc2n1)NO	> 1000	–
O=C(CCCCCC(=O)NCc1cc(C(=O)Nc2ccccc2)c2ccccc2n1)NO	301	–
O=C(CCCCCCC(=O)NCc1cc(C(=O)Nc2ccccc2)c2ccccc2n1)NO	562	–
CCCCNC(=O)c1cc(CNC(=O)CCCCCC(=O)NO)nc2ccccc12	444	–
CCCCNC(=O)c1cc(CNC(=O)CCCCCCC(=O)NO)nc2ccccc12	> 1000	–
CNC(=O)c1cc(CNC(=O)CCCCCC(=O)NO)nc2ccccc12	642	–
CNC(=O)c1cc(CNC(=O)CCCCCCC(=O)NO)nc2ccccc12	> 1000	–
O=C(CCCCCC(=O)NCc1cc(C(=O)NCc2ccccc2)c2cc(Br)ccc2n1)NO	343	–
O=C(CCCCCCC(=O)NCc1cc(C(=O)NCc2ccccc2)c2cc(Br)ccc2n1)NO	> 1000	–
O=C(CCCCCCCC(=O)NCc1cc(C(=O)NCc2ccccc2)c2cc(Br)ccc2n1)NO	> 1000	–
O=C(CCCCCC(=O)NCc1cc(C(=O)Nc2ccccc2)c2cc(Br)ccc2n1)NO	196	–
O=C(CCCCCCC(=O)NCc1cc(C(=O)Nc2ccccc2)c2cc(Br)ccc2n1)NO	> 1000	–
O=C(CCCC(=O)NCc1ccc2ccccc2n1)NO	> 1000	–
O=C(CCCCC(=O)NCc1ccc2ccccc2n1)NO	> 1000	–
O=C(CCCCCC(=O)NCc1ccc2ccccc2n1)NO	266	–
O=C(CCCCCCC(=O)NCc1ccc2ccccc2n1)NO	678	–
O=C(CCCCCC(=O)NCc1ccc2cc(F)ccc2n1)NO	155	–
O=C(CCCCCC(=O)NCc1ccc2cc(Cl)ccc2n1)NO	120	pIC50 (MDA-MB-231): 5.74; pIC50 (PC-3): 5.04; pIC50 (K562): 5.47; pIC50 (A549): 5.57
O=C(CCCCCC(=O)NCc1ccc2cc(Br)ccc2n1)NO	85	pIC50 (MDA-MB-231): 6.05; pIC50 (PC-3): 5.03; pIC50 (K562): 5.31; pIC50 (A549): 5.41
O=C(CCCCCCC(=O)NCc1ccc2cc(Br)ccc2n1)NO	146	–
O=C(CCCCCC(=O)NCc1ccc2cc(I)ccc2n1)NO	132	pIC50 (MDA-MB-231): 5.85; pIC50 (PC-3): 5.07; pIC50 (K562): 5.61; pIC50 (A549): 5.59
O=C(CCCCCC(=O)NCc1cc(C(=O)NCc2ccccc2)c2cc(-c3ccccc3)ccc2n1)NO	341	–
O=C(CCCCCC(=O)NCc1ccc2cc(-c3ccccc3)ccc2n1)NO	152	–
